Experimental data from a flash point compilation (Sun et al. 2020).

SMILES | flash point
CCC1(C)CCCC1 [1-ethyl-1-methylcyclopentane] | 6 °C
Cc1cccc(C(C)(C)C)c1O [2-t-butyl-6-methylphenol] | 107 °C
CCC(=O)OC(C)(C)C [t-butyl propionate] | 20 °C
Cc1ccc(O)cc1 [p-cresol] | 86 °C
COC(=O)C1CC1 [methyl cyclopropanecarboxylate] | 17 °C
CCC(C)C(C)O (configuration not stated) [3-methyl-2-pentanol] | 40 °C
CCCCC=C(C)C [2-methyl-2-heptene] | 8 °C
CCCCCC(C)CCC (configuration not stated) [4-methylnonane] | 38 °C
CCC1CCCC1 [ethyl cyclopentane] | 15 °C
CC1CCC(O)CC1 (configuration not stated) [4-methylcyclohexanol] | 70 °C
C=C(C)C(C)C [2,3-dimethyl-1-butene] | -18 °C
CCCCSCCCC [dibutyl sulfide] | 60 °C
C=Cc1cccc(C)c1 [3-methylstyrene] | 51 °C
COCCOCCOC [diethylene glycol dimethyl ether] | 51 °C
CCC(=O)O [propionic acid] | 51 °C
CCC(CC)C(=O)O [2-ethylbutyric acid] | 87 °C
C=CC(=O)OCCCC [2-propenoic acid, butyl ester] | 37 °C
CC(C)COC(=O)C(C)C [isobutyl isobutyrate] | 40 °C
CC(C)(C)N [tert-butylamine] | -9 °C
CCCCCCCCCO [1-nonanol] | 98 °C
C=C(C)C=O [isobutenal] | -0 °C
CCCCSSCCCC [dibutyl disulfide] | 113 °C
COC(C)(C)C [tert-butyl methyl ether] | -28 °C

SMILES | flash point
CCCCCC(=O)CC [3-octanone] | 53 °C
O=C=Nc1ccccc1 [phenyl isocyanate] | 51 °C
CCCCCCCCCCN [1-decanamine] | 86 °C
CCCCOC(=O)CCCCCCCCC(=O)OCCCC [dibutyl sebacate] | 167 °C
O=C1CCCCC1=O [1,2-cyclohexanedione] | 84 °C
CCCCCI [1-iodopentane] | 43 °C
SC1CCCC1 [cyclopentanethiol] | 25 °C
CCCC(C)S (configuration not stated) [2-pentanethiol] | 9 °C
CC(C)=CCCC(C)CC=O (configuration not stated) [citronellal] | 75 °C
C=CC(C)=CC [3-methyl-1,3-pentadiene] | -28 °C
CCCCCC(=O)CCCCC [6-undecanone] | 88 °C
CCC(=O)OC [methyl propionate] | 6 °C
CCCCCCCBr [1-bromoheptane] | 60 °C
c1ccc(CN(Cc2ccccc2)Cc2ccccc2)cc1 [tribenzylamine] | 203 °C
Sc1ccccc1 [benzenethiol] | 50 °C
OCC(Cl)CCl (configuration not stated) [2,3-dichloro-1-propanol] | 93 °C
c1cc[nH]c1 [pyrrole] | 33 °C
CC(C)NC(C)C [diisopropylamine] | -6 °C
CCN(CC)CC [triethylamine] | -17 °C
CSCc1ccccc1 [benzyl methyl sulfide] | 73 °C
CCC=C(C)C [2-methyl-2-pentene] | -23 °C
CCc1ccc(O)cc1 [4-ethylphenol] | 104 °C
Cc1ccc(C(C)C)cc1O [carvacrol] | 106 °C

SMILES | flash point
C=CC(=C)C [2-methyl-1,3-butadiene] | -48 °C
ClCC(Cl)Cl [1,1,2-trichloroethane] | 32 °C
CC=CCCCCC [2-octene] | 14 °C
CC(O)CN (configuration not stated) [1-amino-2-propanol] | 77 °C
CCCCI [1-iodobutane] | 33 °C
OCC(O)CO [glycerol] | 184 °C
C=C(C)C [isobutene] | -76 °C
C=CCCBr [4-bromo-1-butene] | 9 °C
CCCCCCC(=O)OC [methyl heptanoate] | 52 °C
N#Cc1ccccc1 [benzonitrile] | 75 °C
CCCCCC(O)CC (configuration not stated) [3-octanol] | 65 °C
CCC(O)CC [3-pentanol] | 34 °C
CC=CCCC [2-hexene] | -21 °C
C=C(C)CO [2-methyl-2-propen-1-ol] | 33 °C
CC(C)(C)CO [2,2-dimethyl-1-propanol] | 36 °C
Brc1ccc(-c2ccccc2)cc1 [4-bromobiphenyl] | 144 °C
CCOC(=O)CCl [ethyl chloroacetate] | 53 °C
C=CC1CCCCC1 [ethenylcyclohexane] | 22 °C
CCC(C)=O [2-butanone] | -9 °C
CCCCOC(=O)c1ccccc1C(=O)OCCCC [dibutyl phthalate] | 117 °C
CC(=O)CC(C)C [4-methyl-2-pentanone] | 14 °C
